Common to all, as to assay: relative viability (nuclei count vs DMSO), 5 days (fraction); higher = more cells survive
Compound in the assay “MK-8033 + Phenformin”: Cn1cc(-c2cnc3ccc4ccc(CS(=O)(=O)NCc5ccccn5)cc4c(=O)c3c2)cn1 [MK-8033] + N=C(N)NC(=N)NCCc1ccccc1 [Phenformin] (partner 250 µM)
The procedure, abridged: (§1)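 Lung cancer cell lines, seeded in 1536-well plates, were treated the following day by pin tool with a single drug or with five library-drug doses (not always all listed) in √10 steps on top of a fixed anchor-drug dose. Cells were fixed and nuclei stained in one step after 5 days, and nuclei were counted. Relative viability is the nuclei count for treated wells divided by that for vehicle wells, reported as medians of duplicate plates.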

Compound in the assay “MK-8033 + Navitoclax”: Cn1cc(-c2cnc3ccc4ccc(CS(=O)(=O)NCc5ccccn5)cc4c(=O)c3c2)cn1 [MK-8033] + CC1(C)CCC(c2ccc(Cl)cc2)=C(CN2CCN(c3ccc(C(=O)NS(=O)(=O)c4ccc(N[C@H](CCN5CCOCC5)CSc5ccccc5)c(S(=O)(=O)C(F)(F)F)c4)cc3)CC2)C1 [Navitoclax] (partner 0.5 µM)
The procedure, abridged:
as §1

Compound in the assay “RU-SKI 43 + Trametinib”: CC[C@@H](C)CNCC(=O)N1CCC2=C([C@@H]1COC3=CC=CC(=C3)C)C=CS2 [RU-SKI 43] + CC(=O)Nc1cccc(-n2c(=O)n(C3CC3)c(=O)c3c(Nc4ccc(I)cc4F)n(C)c(=O)c(C)c32)c1 [Trametinib] (partner 0.02 µM)
A digest of the protocol: as §1

Compound in the assay “MK-8033 + Olaparib”: Cn1cc(-c2cnc3ccc4ccc(CS(=O)(=O)NCc5ccccn5)cc4c(=O)c3c2)cn1 [MK-8033] + O=C(c1cc(Cc2n[nH]c(=O)c3ccccc23)ccc1F)N1CCN(C(=O)C2CC2)CC1 [Olaparib] (partner 8 µM)
A digest of the protocol: as §1

For NCI-H2347, the relative viability in the assay with MK-8033 + Phenformin (first compound 0.02 µM) amounted to 0.442; with MK-8033 + Phenformin (first compound 0.06325 µM), 0.37; with MK-8033 + Phenformin (first compound 0.2 µM), 0.57; with MK-8033 + Phenformin (first compound 0.6325 µM), 0.59; with MK-8033 + Phenformin (first compound 2 µM), 0.428; with MK-8033 + Navitoclax (first compound 0.02 µM), 0.844. The relative viability came to 0.741 with MK-8033 + Navitoclax (first compound 0.06325 µM); 0.779 with MK-8033 + Navitoclax (first compound 0.2 µM); 0.827 with MK-8033 + Navitoclax (first compound 0.6325 µM); 0.737 in the assay with MK-8033 + Navitoclax (first compound 2 µM); 0.293 with RU-SKI 43 + Trametinib (first compound 0.1 µM); 0.275 with RU-SKI 43 + Trametinib (first compound 0.3162 µM). In addition, the relative viability in the assay with RU-SKI 43 + Trametinib (first compound 1 µM) is 0.388; in the assay with RU-SKI 43 + Trametinib (first compound 3.162 µM) it was 0.289; with RU-SKI 43 + Trametinib (first compound 10 µM), 0.302; with MK-8033 + Olaparib (first compound 0.02 µM), 0.564; in the assay with MK-8033 + Olaparib (first compound 0.06325 µM), 0.573; with MK-8033 + Olaparib (first compound 0.2 µM), 0.535. The figures for the relative viability with MK-8033 + Olaparib (first compound 0.6325 µM) and with MK-8033 + Olaparib (first compound 2 µM) were 0.617 and 0.575, respectively.

Turning to NCI-H2405, the relative viability was determined as 0.406 in the assay with MK-8033 + Phenformin (first compound 0.02 µM); 0.348 in the assay with MK-8033 + Phenformin (first compound 0.06325 µM); 0.403 with MK-8033 + Phenformin (first compound 0.2 µM); 0.377 in the assay with MK-8033 + Phenformin (first compound 0.6325 µM); 0.367 with MK-8033 + Phenformin (first compound 2 µM); 0.825 in the assay with MK-8033 + Navitoclax (first compound 0.02 µM). Further, the relative viability came to 0.727 in the assay with MK-8033 + Navitoclax (first compound 0.06325 µM); 0.733 with MK-8033 + Navitoclax (first compound 0.2 µM); 0.847 with MK-8033 + Navitoclax (first compound 0.6325 µM); 0.933 in the assay with MK-8033 + Navitoclax (first compound 2 µM); 0.645 in the assay with RU-SKI 43 + Trametinib (first compound 0.1 µM); 0.681 with RU-SKI 43 + Trametinib (first compound 0.3162 µM). The relative viability with RU-SKI 43 + Trametinib (first compound 1 µM) was determined as 0.612; with RU-SKI 43 + Trametinib (first compound 3.162 µM) it was 0.713; in the assay with RU-SKI 43 + Trametinib (first compound 10 µM), 0.581; with MK-8033 + Olaparib (first compound 0.02 µM), 0.832; with MK-8033 + Olaparib (first compound 0.06325 µM) it was 0.881; with MK-8033 + Olaparib (first compound 0.2 µM), 0.868. Moreover, the relative viability in the assay with MK-8033 + Olaparib (first compound 0.6325 µM) turned out to be 0.913; with MK-8033 + Olaparib (first compound 2 µM), 0.876.

As for NCI-H3122, the relative viability with MK-8033 + Phenformin (first compound 0.02 µM) worked out at 0.346; with MK-8033 + Phenformin (first compound 0.06325 µM) it was 0.347; in the assay with MK-8033 + Phenformin (first compound 0.2 µM) it was 0.347; with MK-8033 + Phenformin (first compound 0.6325 µM), 0.368; with MK-8033 + Phenformin (first compound 2 µM), 0.354; in the assay with MK-8033 + Navitoclax (first compound 0.02 µM), 1.03. The relative viability with MK-8033 + Navitoclax (first compound 0.06325 µM) stood at 1; with MK-8033 + Navitoclax (first compound 0.2 µM), 1.03; with MK-8033 + Navitoclax (first compound 0.6325 µM), 1.01; with MK-8033 + Navitoclax (first compound 2 µM) it was 1.05; in the assay with RU-SKI 43 + Trametinib (first compound 0.1 µM), 0.244; with RU-SKI 43 + Trametinib (first compound 0.3162 µM) it was 0.233. For the same cell line, the relative viability with RU-SKI 43 + Trametinib (first compound 1 µM) was found to be 0.241; with RU-SKI 43 + Trametinib (first compound 3.162 µM) it was 0.252; in the assay with RU-SKI 43 + Trametinib (first compound 10 µM), 0.259; with MK-8033 + Olaparib (first compound 0.02 µM), 0.576; in the assay with MK-8033 + Olaparib (first compound 0.06325 µM), 0.662; with MK-8033 + Olaparib (first compound 0.2 µM) it was 0.618. Besides, the relative viability with MK-8033 + Olaparib (first compound 0.6325 µM) turned out to be 0.572; in the assay with MK-8033 + Olaparib (first compound 2 µM), 0.589.

With PC-3 [JPC-3], the relative viability with MK-8033 + Phenformin (first compound 0.02 µM) came to 0.482; with MK-8033 + Phenformin (first compound 0.06325 µM), 0.426; with MK-8033 + Phenformin (first compound 0.2 µM), 0.469; with MK-8033 + Phenformin (first compound 0.6325 µM), 0.475; in the assay with MK-8033 + Phenformin (first compound 2 µM) it was 0.503; with MK-8033 + Navitoclax (first compound 0.02 µM) it was 0.746. Further, the relative viability with MK-8033 + Navitoclax (first compound 0.2 µM) turned out to be 0.775; with MK-8033 + Navitoclax (first compound 0.6325 µM), 0.726; with MK-8033 + Navitoclax (first compound 2 µM), 0.749; with RU-SKI 43 + Trametinib (first compound 0.1 µM), 0.63; with RU-SKI 43 + Trametinib (first compound 0.3162 µM), 0.523; with RU-SKI 43 + Trametinib (first compound 1 µM) it was 0.79. Also, the relative viability with RU-SKI 43 + Trametinib (first compound 3.162 µM) was 0.662; with RU-SKI 43 + Trametinib (first compound 10 µM), 0.62; with MK-8033 + Olaparib (first compound 0.02 µM), 1.08; with MK-8033 + Olaparib (first compound 0.2 µM), 1.04; in the assay with MK-8033 + Olaparib (first compound 0.6325 µM), 1.16; in the assay with MK-8033 + Olaparib (first compound 2 µM) it was 1.09.

Take PC-14: the relative viability with MK-8033 + Phenformin (first compound 0.02 µM) was determined as 0.605; in the assay with MK-8033 + Phenformin (first compound 0.06325 µM) it was 0.472; with MK-8033 + Phenformin (first compound 0.2 µM), 0.508; in the assay with MK-8033 + Phenformin (first compound 0.6325 µM), 0.524; with MK-8033 + Phenformin (first compound 2 µM), 0.564; in the assay with MK-8033 + Navitoclax (first compound 0.02 µM), 0.96. For the same cell line, the relative viability with MK-8033 + Navitoclax (first compound 0.06325 µM) turned out to be 0.944; with MK-8033 + Navitoclax (first compound 0.2 µM) it was 0.987; with MK-8033 + Navitoclax (first compound 0.6325 µM) it was 1.06; with MK-8033 + Navitoclax (first compound 2 µM), 1.02; in the assay with RU-SKI 43 + Trametinib (first compound 0.1 µM), 0.637; in the assay with RU-SKI 43 + Trametinib (first compound 0.3162 µM), 0.824. The relative viability with RU-SKI 43 + Trametinib (first compound 1 µM) came to 0.82; with RU-SKI 43 + Trametinib (first compound 3.162 µM), 0.652; with RU-SKI 43 + Trametinib (first compound 10 µM), 0.533; in the assay with MK-8033 + Olaparib (first compound 0.02 µM), 0.249; in the assay with MK-8033 + Olaparib (first compound 0.06325 µM), 0.27; in the assay with MK-8033 + Olaparib (first compound 0.2 µM), 0.299. Moreover, the relative viability with MK-8033 + Olaparib (first compound 0.6325 µM) was found to be 0.321; in the assay with MK-8033 + Olaparib (first compound 2 µM), 0.271.
